Patent publication US11980188B2, “Spiro cyclohexanedione derivates as herbicides” (SYNGENTA PARTICIPATIONS AG, priority 2018, dated 2024)

Key:
Setaria faberi (SETFA) = experiment: Glasshouse herbicide test, pre- and post-emergence, percentage damage; assay type: in vivo; conditions: 250 g/h, evaluated after 13 days, percentage damage on five point scale; for SETFA POST: post-emergence; for SETFA PRE: pre-emergence
In short: (§1)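 Seeds are sown in pots, grown at 24/16 °C day/night with 14 h light and 65% humidity, then sprayed at day 1 (pre-emergence) or day 8 (post-emergence). The rate is 250 g/h in acetone/water 50:50 with 0.5% Tween 20. Damage is assessed 13 days later on a 1–5 scale.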

[1] = system: Echinochloa crus-galli (ECHCG); experiment: as above; assay type: in vivo; conditions: 250 g/h, evaluated after 13 days, percentage damage on five point scale; for ECHCG POST: post-emergence; for ECHCG PRE: pre-emergence
In short: as §1

[2] = system: Alopecurus myosuroides (ALOMY); experiment: as above; assay type: in vivo; conditions: 250 g/h, evaluated after 13 days, percentage damage on five point scale; for ALOMY POST: post-emergence; for ALOMY PRE: pre-emergence
In short: as §1

Lolium perenne (LOLPE) = experiment: as above; assay type: in vivo; conditions: 250 g/h, evaluated after 13 days, percentage damage on five point scale; for LOLPE POST: post-emergence; for LOLPE PRE: pre-emergence
In short: as §1

Avena fatua (AVEFA) = experiment: as above; assay type: in vivo; conditions: 250 g/h, evaluated after 13 days, percentage damage on five point scale; for AVEFA POST: post-emergence; for AVEFA PRE: pre-emergence
In short: as §1

LOLPE = experiment: Post-emergence comparison with comparator C1 at indicated application rates; assay type: in vivo, Lolium perenne
Protocol: (§2) Seeds of a variety of test species are sown in standard soil in pots (Lolium perenne (LOLPE), Setaria faberi (SETFA), Alopecurus myosuroides (ALOMY), Echinochloa crus-galli (ECHCG), Avena fatua (AVEFA)). After cultivation for one day (pre-emergence) or after 8 days cultivation (post-emergence) under controlled conditions in a glasshouse (at 24/16° C., day/night; 14 hours light; 65% humidity), the plants are sprayed with an aqueous spray solution derived from the formulation of the technical active ingredient in acetone/water (50:50) solution containing 0.5% Tween 20 (polyoxyethelyene sorbitan monolaurate, CAS RN 9005-64-5). Compounds are applied at […]. The test plants are then grown in a glasshouse under controlled conditions in a glasshouse (at 24/16° C., day/night; 14 hours light; 65% humidity) and watered twice daily. After 13 days for pre and post-emergence, the test is evaluated for the percentage damage caused to the plant. The biological activities are shown in the following table on a five point scale (5=80-100%; 4=60-79%; 3=40-59%; 2=20-39%; 1=0-19%).
(§3) Using procedures outlines above, weed species ALOMY, AVEFA & LOLPE are treated post-emergence with compound A4 of the present invention or comparator compound C1 (Compound T-26 from WO2008/110308) at the application rates indicated. The test is evaluated for the percentage damage caused to the plant.

[3] = system: weed species ALOMY, AVEFA & LOLPE; experiment: Post-emergence comparison with comparator C1, overall conclusion; assay type: in vivo; conditions: 63 and 16 g/ha, Table B2
Protocol: as §2, §3

AVEFA = experiment: Post-emergence comparison with comparator C1 at indicated application rates; assay type: in vivo, Avena fatua
Protocol: as §2, §3

ALOMY = experiment: as above; assay type: in vivo, Alopecurus myosuroides
Protocol: as §2, §3

Row | Compound | SETFA POST (Setaria faberi (SETFA)) | SETFA PRE (Setaria faberi (SETFA)) | ECHCG POST [1] | ECHCG PRE [1] | ALOMY POST [2] | ALOMY PRE [2] | LOLPE POST (Lolium perenne (LOLPE)) | LOLPE PRE (Lolium perenne (LOLPE)) | AVEFA POST (Avena fatua (AVEFA)) | AVEFA PRE (Avena fatua (AVEFA)) | LOLPE percentage damage (LOLPE; rate 16 g/ha) | LOLPE percentage damage (LOLPE; rate 63 g/ha) | weed control vis-à-vis prior art compound C1 [3] | AVEFA percentage damage (AVEFA; rate 16 g/ha) | AVEFA percentage damage (AVEFA; rate 63 g/ha) | ALOMY percentage damage (ALOMY; rate 16 g/ha) | ALOMY percentage damage (ALOMY; rate 63 g/ha)
1 | CON1CCC2(CC1)CC(=O)C(c1c(C)cc(C)cc1C)C(=O)C2 [Compound A4] | 5 (5=80-100%) | 5 (5=80-100%) | 5 (5=80-100%) | 5 (5=80-100%) | 5 (5=80-100%) | 5 (5=80-100%) | 5 (5=80-100%) | 5 (5=80-100%) | 5 (5=80-100%) | 5 (5=80-100%) | 70% | 90% | improved weed control | 40% | 90% | 40% | 90%
2 | COc1cc(-c2ccc(F)cc2)cc(OC)c1C1C(=O)CC2(CCN(OC)CC2)CC1=O [Compound A7] | 5 (5=80-100%) | 5 (5=80-100%) | 5 (5=80-100%) | 5 (5=80-100%) | 5 (5=80-100%) | 5 (5=80-100%) | 5 (5=80-100%) | 5 (5=80-100%) | 5 (5=80-100%) | 5 (5=80-100%) | 90% | 100% | improved weed control | 100% | 100% | 80% | 100%
3 | CC(=O)N1CCC2(CC1)CC(=O)C(c1c(C)cc(-c3ncc(F)cn3)cc1C)C(=O)C2 [Compound A13, 3-acetyl-9-[4-(5-fluoropyrimidin-2-yl)-2,6-dimethyl-phenyl]-3-azaspiro[5.5]undecane-8,10-dione] | 5 (5=80-100%) | 5 (5=80-100%) |  | 5 (5=80-100%) | 5 (5=80-100%) | 5 (5=80-100%) | 5 (5=80-100%) | 5 (5=80-100%) | 5 (5=80-100%) | 5 (5=80-100%) | 70% | 90% | improved weed control | 90% | 100% | 90% | 100%
4 | Cc1cc(-c2ccc(F)cc2)cc(C)c1C1C(=O)CC2(CCN(C(=O)c3ccccn3)CC2)CC1=O [Compound A55] | 5 (5=80-100%) | 5 (5=80-100%) | 5 (5=80-100%) | 5 (5=80-100%) |  | 5 (5=80-100%) | 5 (5=80-100%) | 5 (5=80-100%) | 5 (5=80-100%) | 5 (5=80-100%) |  |  |  |  |  |  | 
5 | COCC(=O)N1CCC2(CC1)CC(=O)C(c1c(C)cc(-c3ccc(F)cc3)cc1C)C(=O)C2 [Compound A56] | 5 (5=80-100%) | 5 (5=80-100%) | 5 (5=80-100%) | 5 (5=80-100%) |  | 5 (5=80-100%) | 5 (5=80-100%) | 5 (5=80-100%) | 5 (5=80-100%) | 5 (5=80-100%) |  |  |  |  |  |  | 
6 | Cc1cc(-c2ccc(F)cc2)cc(C)c1C1C(=O)CC2(CCN(C(=O)NC(=O)C(C)(C)C)CC2)CC1=O [Compound A58] | 5 (5=80-100%) | 5 (5=80-100%) | 5 (5=80-100%) | 5 (5=80-100%) |  | 5 (5=80-100%) | 5 (5=80-100%) | 5 (5=80-100%) | 5 (5=80-100%) | 4 (4=60-79%) |  |  |  |  |  |  | 
7 | Cc1cc(-c2ccc(F)cc2)cc(C)c1C1C(=O)CC2(CCN(C(=O)C3CC3)CC2)CC1=O [Compound A59] | 5 (5=80-100%) | 5 (5=80-100%) | 5 (5=80-100%) | 5 (5=80-100%) |  | 5 (5=80-100%) | 5 (5=80-100%) | 5 (5=80-100%) | 5 (5=80-100%) | 5 (5=80-100%) |  |  |  |  |  |  | 
8 | Cc1cc(-c2ccc(F)cc2)cc(C)c1C1C(=O)CC2(CCN(C(=O)C(F)F)CC2)CC1=O [Compound A60] | 5 (5=80-100%) | 5 (5=80-100%) | 5 (5=80-100%) | 5 (5=80-100%) |  | 5 (5=80-100%) | 5 (5=80-100%) | 5 (5=80-100%) | 5 (5=80-100%) | 5 (5=80-100%) |  |  |  |  |  |  | 
9 | Cc1cc(-c2ccc(F)cc2)cc(C)c1C1C(=O)CC2(CCN(C(=O)C(C)(C)C)CC2)CC1=O [Compound A61] | 5 (5=80-100%) | 5 (5=80-100%) | 5 (5=80-100%) | 5 (5=80-100%) |  | 5 (5=80-100%) | 5 (5=80-100%) | 5 (5=80-100%) | 4 (4=60-79%) | 2 (2=20-39%) |  |  |  |  |  |  | 
10 | Cc1cc(-c2ccc(F)cc2)cc(C)c1C1C(=O)CC2(CCN(C(=O)CC#N)CC2)CC1=O [Compound A63] | 5 (5=80-100%) | 5 (5=80-100%) | 4 (4=60-79%) | 5 (5=80-100%) |  | 5 (5=80-100%) | 5 (5=80-100%) | 5 (5=80-100%) | 5 (5=80-100%) | 5 (5=80-100%) |  |  |  |  |  |  | 
11 | COc1cc(-c2ccc(F)cc2)cc(C)c1C1C(=O)CC2(CCN(C(=O)NC(=O)c3ccccn3)CC2)CC1=O [Compound A73] | 5 (5=80-100%) | 5 (5=80-100%) | 5 (5=80-100%) | 4 (4=60-79%) |  | 5 (5=80-100%) | 5 (5=80-100%) | 1 (1=0-19%) | 5 (5=80-100%) | 1 (1=0-19%) |  |  |  |  |  |  | 
12 | COc1cc(-c2ccc(F)cc2)cc(C)c1C1C(=O)CC2(CCN(C(=O)C(C)O)CC2)CC1=O (stereo not shown) [Compound A75] | 5 (5=80-100%) | 5 (5=80-100%) | 5 (5=80-100%) | 5 (5=80-100%) | 5 (5=80-100%) | 5 (5=80-100%) | 5 (5=80-100%) | 5 (5=80-100%) | 5 (5=80-100%) | 5 (5=80-100%) |  |  |  |  |  |  | 
13 | Cc1cc(C)c(C2C(=O)CC3(CCOCC3)CC2=O)c(C)c1 [Compound C1, reference compound] |  |  |  |  |  |  |  |  |  |  | 30% | 60% |  | 20% | 70% | 20% | 80%
14 | CC(=O)OC1=C(c2c(C)cc(-c3ccc(F)cc3)cc2C)C(=O)CC2(CCN(C(C)=O)CC2)C1 [Compound P1] | 5 (5=80-100%) | 5 (5=80-100%) | 5 (5=80-100%) | 5 (5=80-100%) | 5 (5=80-100%) | 5 (5=80-100%) | 5 (5=80-100%) | 5 (5=80-100%) | 5 (5=80-100%) | 5 (5=80-100%) |  |  |  |  |  |  | 
